Measurements as given in patent publication US20220142161A1, “METHOD OF IMPROVING THE GROWTH AND/OR THE YIELD OF PLANTS GROWN ON AGRICULTURALLY OR HORTICULTURALLY UTILIZED SUBSTRATES BY APPLYING A NITRICATION INHIBITOR ADDED TO THE IRRIGATION SYSTEM” (BASF SE, priority 2019, published 2022).

Key:
[1] = system: nitrification in sandy loam soil (soil microbial biomass); experiment: Soil incubation with simulated drip irrigation: NH4 recovery and nitrification inhibition; settings: for % NH4 recovery of applied NH4: 20° C., ammonium sulfate; for % nitrification inhibition: calculated according to equation 1
Procedure: (§1) In the examples a standardized sandy loam soil with coarse and very light texture was used.
For each test, three 500 ml plastic bottles were filled with 100 g of air dried soil each. Soil was moistened with deionized water to 50% of its water holding capacity. Then, the soil was incubated for two weeks at 20° C. to activate the microbial biomass. Ammonium sulfate was dissolved in deionized water in an amount corresponding to a nitrogen concentration of 10 g/L and supplemented by the desired amount of nitrogen inhibitor in an amount given in table 1. To each bottle 1 ml of the test solution was added by dripping the test solution with a pipette to the soil to simulate drop irrigation. Bottles were loosely capped to avoid contamination by dirt but to allow air exchange. The bottles were incubated at 20° C. for 0 to 42 days.
For determining the nitrogen content in the soil after incubation, to each bottle 300 mL of a 1% by weight solution of potassium sulfate in deionized water was added and the bottle was shaken for 2 h in a horizontal shaker at 150 rpm. Then the whole content of the bottle was filtered through a paper filter (MN 807 of Macherey-Nagel) and the filtrate was analyzed photometrically at 550 nm with respect to ammonium and nitrate by means of an auto analyzer AA11 of Merck.
Inhibition of nitrification was calculated by the following equation 1 (Bohland equation, DD 123771):
N (NO3) 1=Concentration of nitrogen contributed by NO3 without NI at the end of incubation
N (NO3) […]=Concentration of nitrogen contributed by NO3 with NI at the end of incubation
N (NO3) […]=Concentration of nitrogen contributed by NO3 at the beginning of incubation
The Examples were carried out in two separate series 1 and 2. All results are averages of 3 replications.

[2] = system: nitrification in sandy loam soil; experiment: Leaching experiment in soil column with simulated drip irrigation; settings: AS 90 mg N; NI/N (NH4) 0.8%; 9 days at 20° C., then about 43 mm precipitation; lower value = better inhibition
Procedure: as §1
100 g of air dried soil was filled in a 150 mL free draining column made of glass. Soil was moistened with deionized water to 50% of its water holding capacity. Then, the filled column was incubated for 24 h at 20° C. A solution of ammonium sulfate and optionally the nitrogen inhibitor in deionized water was deposited on the soil by means of a pipette to simulate drip irrigation. The amount of ammonium sulfate corresponds to 90 mg of nitrogen (N). The columns were then incubated for 9 days at 20° C. Then, deionized water was dripped to the soil corresponding to a precipitation of about 43 mm. Thereafter, the water was removed from the soil by applying a negative pressure until the moisture in the soil was 50% of its water holding capacity. The removed water (percolate) was collected and analyzed with regard to the total quantity of inorganic nitrogen (NH4 and NO3) as described for example 1. Since NH4 is more strongly bound to the soil compared to NO3 a lower nitrogen value indicates a better inhibition of nitrification.

[3] = first series, DAT14, NI/N (NH4) 10%
[4] = first series, DAT28, NI/N (NH4) 10%
[5] = first series, DAT42, NI/N (NH4) 10%
[6] = first series, DAT14, NI/N (NH4) 0.8%
[7] = first series, DAT28, NI/N (NH4) 0.8%
[8] = first series, DAT42, NI/N (NH4) 0.8%
[9] = second series, DAT7, NI/N (NH4) 0.8%
[10] = second series, DAT14, NI/N (NH4) 0.8%
[11] = second series, DAT28, NI/N (NH4) 0.8%
[12] = second series, DAT42, NI/N (NH4) 0.8%
[13] = second series, DAT7, NI/N (NH4) 0.4%
[14] = second series, DAT14, NI/N (NH4) 0.4%
[15] = second series, DAT28, NI/N (NH4) 0.4%
[16] = second series, DAT42, NI/N (NH4) 0.4%

## N#CN=C(N)N [DCD, dicyandiamide]
[1]; [3]
  % NH4 recovery of applied NH4: 63%
  % nitrification inhibition: 59%
[1]; [4]
  % NH4 recovery of applied NH4: 13%
  % nitrification inhibition: 15%
[1]; [5]
  % NH4 recovery of applied NH4: 0%
  % nitrification inhibition: 3%

## Clc1cccc(C(Cl)(Cl)Cl)n1 [Nitrapyrin, 2-chloro-6-(trichloromethyl)pyridine]
[1]; [6]
  % NH4 recovery of applied NH4: 31%
  % nitrification inhibition: 33%
[1]; [7]
  % NH4 recovery of applied NH4: 3%
  % nitrification inhibition: 4%
[1]; [8]
  % NH4 recovery of applied NH4: 0%
  % nitrification inhibition: −2%
[2]
  Total N: total quantity of inorganic nitrogen (NH4 and NO3) in percolate: 7.1 mg

## Cc1c[nH]nc1C.O=P(O)(O)O [DMPP, 3,4-dimethyl pyrazole phosphate]
[1]; [9]
  % NH4 recovery of applied NH4: 75%
  % nitrification inhibition: 70%
[1]; [10]
  % NH4 recovery of applied NH4: 71%
  % nitrification inhibition: 76%
[1]; [11]
  % NH4 recovery of applied NH4: 64%
  % nitrification inhibition: 66%
[1]; [12]
  % NH4 recovery of applied NH4: 66%
  % nitrification inhibition: 61%
[2]
  Total N: total quantity of inorganic nitrogen (NH4 and NO3) in percolate: 6.3 mg

## 2-(3,4-dimethyl-1H-pyrazol-1-yl)succinic acid and 2-(4,5-dimethyl-1H-pyrazol-1-yl)succinic acid [DMPSA]
[1]; conclusion from tables 1 and 2
  inhibition of nitrification in drip irrigation compared to DCD and Nitrapyrin: longer and stronger inhibition of nitrification
[1]; [6]
  % NH4 recovery of applied NH4: 82%
  % nitrification inhibition: 74%
[1]; [7]
  % NH4 recovery of applied NH4: 48%
  % nitrification inhibition: 59%
[1]; [8]
  % NH4 recovery of applied NH4: 27%
  % nitrification inhibition: 34%
[1]; half amount of DMPSA gives comparable nitrification inhibition
  effectiveness relative to DMPP: almost twice effective as DMPP
[1]; [13]
  % NH4 recovery of applied NH4: 82%
  % nitrification inhibition: 76%
[1]; [14]
  % NH4 recovery of applied NH4: 73%
  % nitrification inhibition: 75%
[1]; [15]
  % NH4 recovery of applied NH4: 61%
  % nitrification inhibition: 66%
[1]; [16]
  % NH4 recovery of applied NH4: 63%
  % nitrification inhibition: 56%
[2]
  Total N: total quantity of inorganic nitrogen (NH4 and NO3) in percolate: 6.0 mg
